Each structure is given as a SMILES string. Counter-ions that a name gives are not always drawn. Where only a bound is given, the exact number is not on record here.

In assay [1] the target is T1, human Adenosine A1 receptor (Homo sapiens, UniProt P30542).
T1 sequence (P30542 1-326): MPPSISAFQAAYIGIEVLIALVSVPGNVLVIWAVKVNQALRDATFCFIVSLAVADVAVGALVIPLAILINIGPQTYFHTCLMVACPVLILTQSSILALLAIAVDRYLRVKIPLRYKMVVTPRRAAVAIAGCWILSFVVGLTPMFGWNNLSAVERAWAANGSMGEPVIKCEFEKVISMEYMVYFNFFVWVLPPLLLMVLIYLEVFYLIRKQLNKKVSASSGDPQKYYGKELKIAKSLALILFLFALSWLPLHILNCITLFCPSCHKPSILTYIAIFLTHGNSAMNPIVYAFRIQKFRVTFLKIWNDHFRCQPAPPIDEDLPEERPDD
Put plainly: Adenosine receptor TR-FRET binding assay (CA200645 displacement), A1.

Assay [2] concerns the target T2, human Adenosine A3 receptor (Homo sapiens, UniProt P0DMS8).
T2 sequence (P0DMS8 1-318): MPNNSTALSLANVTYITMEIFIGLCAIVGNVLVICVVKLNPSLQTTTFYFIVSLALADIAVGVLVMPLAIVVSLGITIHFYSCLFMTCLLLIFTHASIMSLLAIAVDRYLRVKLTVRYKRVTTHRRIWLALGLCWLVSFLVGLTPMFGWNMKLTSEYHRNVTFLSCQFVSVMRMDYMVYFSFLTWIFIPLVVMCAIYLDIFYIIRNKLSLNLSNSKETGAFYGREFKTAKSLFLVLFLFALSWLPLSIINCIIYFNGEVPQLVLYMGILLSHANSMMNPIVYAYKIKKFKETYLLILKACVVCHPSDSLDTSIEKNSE
Put plainly: Adenosine receptor TR-FRET binding assay (CA200645 displacement), A3. A general note: Time-resolved FRET reads energy transfer from a long-lived donor to a nearby acceptor.
Procedure: (§1) All FRET binding experiments were conducted at room temperature in white 384-well plates, in assay binding buffer containing 1×LabMed (Cisbio, France), 100 μg/mL saponin, 1% DMSO and 0.02% pluronic acid. Binding of the fluorescently labelled Adenosine receptor antagonist XAC (CA200645, FRET acceptor) to terbium-labelled A1, A2a, A2b and A3 adenosine receptors (FRET donors) was detected by time-resolved FRET due to the close proximity of the donor and acceptor in a binding event. To investigate the ability of unlabelled test compounds to bind to Adenosine A1, A2a, A2b and A3 receptors, dose response curves were constructed that determined the ability of a range of concentrations to inhibit the binding of 30 nM CA200645 to the A2b receptor and 100 nM CA200645 to the A1, A2a, and A3 receptor.
(§2) Serial dilution (1:3 dilutions) of test compounds in neat DMSO and transfer of a 400 nL sample of test compound into the assay plate was carried out using the Mosquito (TTP Labtech, UK). The compound samples were incubated for 2 hours at room temperature with a fixed concentration of CA200645 defined for each receptor (see above) and CHO cell membranes containing the human Adenosine A1 (0.5 μg/well), A2a (0.3 μg/well), A2b (1 μg/well) or A3 (1 μg/well) receptor in 40 μL of assay buffer. Total and non-specific binding of CA200645 was determined in the absence and presence of 10 μM XAC, respectively. Following 2 hours incubation, the level of CA200645 binding was detected on a Pherastar FSX (BMG Labtech, Germany) using standard TR-FRET settings. The terbium donor was excited with three laser flashes at a wavelength of 337 nm, and donor and acceptor emission was detected at 620 nm and 665 nm wavelengths, respectively. FRET ratios were obtained by multiplying the acceptor/donor ratio value by 10,000. Specific binding was determined by subtracting the non-specific binding FRET ratio from the total binding FRET ratio. Compound IC50 curves were analysed using GraphPad Prism 7.0 (GraphPad, USA) and Ki affinity values were determined from the obtained IC50 values using the method of Cheng and Prusoff.

Assay [3] addresses T3, human Adenosine A2b receptor (Homo sapiens, UniProt P29275).
T3 construct: expressed in transfected cells; host or cells: CHO cell membranes
T3 sequence (P29275 1-332): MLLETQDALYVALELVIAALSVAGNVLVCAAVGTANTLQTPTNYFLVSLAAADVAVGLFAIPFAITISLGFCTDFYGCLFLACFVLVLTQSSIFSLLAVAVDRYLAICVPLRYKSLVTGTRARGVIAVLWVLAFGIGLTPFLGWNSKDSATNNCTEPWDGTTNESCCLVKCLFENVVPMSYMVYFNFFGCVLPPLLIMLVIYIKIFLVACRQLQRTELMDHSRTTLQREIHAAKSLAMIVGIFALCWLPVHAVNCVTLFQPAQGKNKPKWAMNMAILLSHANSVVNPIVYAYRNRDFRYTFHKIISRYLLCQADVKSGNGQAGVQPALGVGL
Kind of assay: Adenosine receptor TR-FRET binding assay (CA200645 displacement), A2b. Conditions: 30 nM CA200645, CHO cell membranes, 2 hours at room temperature.

The target of assay [4] is T4, human Adenosine A2a receptor (Homo sapiens, UniProt P29274).
T4 construct: expressed in transfected cells; host or cells: CHO cell membranes
Kind of assay: Adenosine receptor TR-FRET binding assay (CA200645 displacement), A2a. Conditions: 100 nM CA200645, CHO cell membranes, 2 hours at room temperature.
Procedure: as §1, §2

T4 sequence (P29274 whole entry): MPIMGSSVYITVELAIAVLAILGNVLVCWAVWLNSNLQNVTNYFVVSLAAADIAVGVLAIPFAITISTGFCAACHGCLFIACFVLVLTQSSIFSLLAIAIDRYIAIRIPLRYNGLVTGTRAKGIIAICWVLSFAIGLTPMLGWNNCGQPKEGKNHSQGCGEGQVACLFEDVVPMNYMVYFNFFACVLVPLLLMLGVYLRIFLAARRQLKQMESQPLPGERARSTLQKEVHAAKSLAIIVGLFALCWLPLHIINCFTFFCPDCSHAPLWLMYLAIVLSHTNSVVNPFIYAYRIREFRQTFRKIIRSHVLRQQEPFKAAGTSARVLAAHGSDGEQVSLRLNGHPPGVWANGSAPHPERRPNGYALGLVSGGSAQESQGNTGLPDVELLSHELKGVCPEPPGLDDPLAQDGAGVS

As to `CC(C)(C)OC(=O)N1CCO[C@H](CNc2ccn3nc(-c4ccco4)c(C#N)c3n2)C1` [Example 37.5], the inhibitory constant (Ki) (commonly a dissociation constant, usually derived from enzyme kinetics or from competition with a known ligand) in assay [1] was determined as 133 nM; in assay [2] it was 1740 nM; in assay [3], 1100 nM; in assay [4], 33.2 nM.

In the case of `N#Cc1c(-c2ccco2)nn2ccc(NCC3CCN(Cc4ccccc4)CC3)nc12` [Example 37.9], the inhibition constant Ki in assay [1] is 398 nM; in assay [2] it was over 1000 nM; in assay [3] it was 36 nM; in assay [4] it was 69.5 nM.

Consider `C[C@@H]1CN(c2ccn3nc(-c4ccco4)c(C#N)c3n2)CCN1C(=O)OC(C)(C)C` [Example 37.10, tert-butyl (2R)-4-[3-cyano-2-(2-furyl)pyrazolo[1,5-a]pyrimidin-5-yl]-2-methyl-piperazine-1-carboxylate], for which the inhibition constant (Ki) was found to be 1760 nM in assay [1], 2880 nM in assay [2], 5040 nM in assay [3] and 76 nM in assay [4].

For `N#Cc1c(-c2ccco2)nn2ccc(NCCN3CCN(Cc4ccccc4)CC3)nc12` [Example 37.12], the inhibition constant Ki in assay [1] turned out to be 319 nM; in assay [2], 923 nM; in assay [3] it was 1320 nM; in assay [4] it was 310 nM.

Turning to `Cc1cccnc1CNc1ccn2nc(-c3ccco3)c(C(N)=O)c2n1` [Example 38, 2-(2-Furyl)-5-[(3-methyl-2-pyridyl)methylamino]pyrazolo[1,5-a]pyrimidine-3-carboxamide], the inhibition constant (Ki) in assay [1] was found to be 158 nM; in assay [2], 1010 nM; in assay [3], 971 nM; in assay [4], 10.5 nM.

Take `CC(C)(C)OC(=O)N1CC=C(c2ccn3nc(-c4ccco4)c(C#N)c3n2)CC1` [Example 40, tert-butyl 4-[3-cyano-2-(2-furyl)pyrazolo[1,5-a]pyrimidin-5-yl]-3,6-dihydro-2H-pyridine-1-carboxylate]: the inhibitory constant (Ki) in assay [1] stood at 1950 nM; in assay [2] it was 1770 nM; in assay [3], 5500 nM; in assay [4], 93.6 nM.

Turning to `N#Cc1c(-c2ccco2)nn2ccc(N3CCNCC3)nc12` [Example 41, 2-(2-Furyl)-5-piperazin-1-yl-pyrazolo[1,5-a]pyrimidine-3-carbonitrile], the Ki in assay [1] was 1570 nM; in assay [2] it was 5140 nM; in assay [3], 2230 nM; in assay [4], 237 nM.

`N#Cc1c(-c2ccco2)nn2ccc(NC[C@@H]3CNCCO3)nc12` [Example 42, 2-(2-Furyl)-5-[[(2S)-morpholin-2-yl]methylamino]pyrazolo[1,5-a]pyrimidine-3-carbonitrile hydrochloride]: the Ki in assay [1] is 313 nM; in assay [2], over 1000 nM; in assay [3] it was 3060 nM; in assay [4], 345 nM.

On to `N#Cc1c(-c2ccco2)nn2ccc(NC[C@H]3CNCCO3)nc12` [Example 42.1, 2-(2-Furyl)-5-[[(2R)-morpholin-2-yl]methylamino]pyrazolo[1,5-a]pyrimidine-3-carbonitrile hydrochloride], for which the inhibitory constant (Ki) is 680 nM in assay [1], over 1000 nM in assay [2], 4450 nM in assay [3] and 410 nM in assay [4].

In the case of `N#Cc1c(-c2ccco2)nn2ccc(N3CCN(Cc4ccccc4)CC3)nc12` [Example 43, 5-(4-Benzylpiperazin-1-yl)-2-(2-furyl)pyrazolo[1,5-a]pyrimidine-3-carbonitrile], the Ki is 278 nM in assay [1], over 1000 nM in assay [2], 1860 nM in assay [3] and 16.4 nM in assay [4].

For `N#Cc1c(-c2ccco2)nn2ccc(N)nc12` [Example 49, 5-Amino-2-(2-furyl)pyrazolo[1,5-a]pyrimidine-3-carbonitrile], the inhibitory constant (Ki) in assay [1] was found to be 172 nM; in assay [2] it was 3960 nM; in assay [3], 2220 nM; in assay [4] it was 147 nM.

As to `Cn1nccc1-c1c(-c2ccco2)nn2ccc(NCc3ccccc3)nc12` [Example 53.1, N-benzyl-2-(2-furyl)-3-(2-methylpyrazol-3-yl)pyrazolo[1,5-a]pyrimidin-5-amine], the inhibition constant (Ki) in assay [1] came to 34 nM; in assay [2], 174 nM; in assay [3], 129 nM; in assay [4], 48.6 nM.

Consider `N#Cc1c(-c2ccco2)nn2ccc(NCCCO)nc12` [Example 55.1, 2-(2-Furyl)-5-(3-hydroxypropylamino)pyrazolo[1,5-a]pyrimidine-3-carbonitrile], for which the inhibition constant Ki in assay [1] amounted to 355 nM; in assay [2], 8460 nM; in assay [3] it was 1740 nM; in assay [4], 103 nM.

In the case of `N#Cc1c(-c2ccco2)nn2ccc(NCCO)nc12` [Example 55.2, 2-(2-furyl)-5-(2-hydroxyethylamino)pyrazolo[1,5-a]pyrimidine-3-carbonitrile], the inhibitory constant (Ki) in assay [1] amounted to 284 nM; in assay [2], 4180 nM; in assay [3], 1700 nM; in assay [4], 244 nM.

In the case of `N#Cc1c(-c2ccco2)nn2ccc(NC[C@H]3CCCNC3)nc12` [Example 56, 2-(2-Furyl)-5-(3-piperidylmethylamino)pyrazolo[1,5-a]pyrimidine-3-carbonitrile hydrochloride], the inhibitory constant (Ki) in assay [1] is 521 nM; in assay [2] it was over 1000 nM; in assay [3], 2700 nM; in assay [4], 141 nM.

As for `N#Cc1c(-c2ncco2)nn2ccc(NCc3ccccc3)nc12` [Example 57, 5-(Benzylamino)-2-oxazol-2-yl-pyrazolo[1,5-a]pyrimidine-3-carbonitrile], the Ki in assay [1] was found to be 236 nM; in assay [2], 1870 nM; in assay [3] it was 1490 nM; in assay [4] it was 24.7 nM.

Regarding `Cc1cccnc1CN1CCN(c2ccn3nc(-c4cccc(F)c4)c(C#N)c3n2)CC1` [Example 60, 2-(3-Fluorophenyl)-5-[4-[(3-methyl-2-pyridyl)methyl]piperazin-1-yl]pyrazolo[1,5-a]pyrimidine-3-carbonitrile], the inhibition constant Ki stood at 27 nM in assay [1], 1000 nM in assay [2], 4600 nM in assay [3] and 33.9 nM in assay [4].

Regarding `c1coc(-c2cc3nc(NCc4nccs4)ccn3n2)c1` [Example 74, 2-(2-Furyl)-N-(thiazol-2-ylmethyl)pyrazolo[1,5-a]pyrimidin-5-amine], the Ki amounted to 649 nM in assay [1], 160 nM in assay [2], 6240 nM in assay [3] and 587 nM in assay [4].

For the compound `OCc1c(-c2ccco2)nn2ccc(NCc3ccccc3)nc12` [Example 75, [5-(Benzylamino)-2-(2-furyl)pyrazolo[1,5-a]pyrimidin-3-yl]methanol], the Ki is 1140 nM in assay [1], 1740 nM in assay [2], 1460 nM in assay [3] and 153 nM in assay [4].

Take `Nc1ccn2nc(-c3ccco3)c(-c3ccncc3)c2n1` [Example 79, 2-(2-Furyl)-3-(4-pyridyl)pyrazolo[1,5-a]pyrimidin-5-amine]: the inhibition constant Ki in assay [1] stood at 14 nM; in assay [2], 2080 nM; in assay [3], 34 nM; in assay [4], 146 nM.

In the case of `N#Cc1c(-c2ccco2)nn2ccc(NC[C@H]3CCCN3)nc12` [Example 80, 2-(2-furyl)-5-[[(2R)-pyrrolidin-2-yl]methylamino]pyrazolo[1,5-a]pyrimidine-3-carbonitrile hydrochloride], the inhibitory constant (Ki) in assay [1] was 988 nM; in assay [2], over 1000 nM; in assay [3] it was 4460 nM; in assay [4], 155 nM.

In the case of `Cc1cc(-c2c(-c3ccc(F)cc3)nn3ccc(N)nc23)cc(Cl)n1` [Example 88, 3-(2-Chloro-6-methyl-4-pyridyl)-2-(4-fluorophenyl)pyrazolo[1,5-a]pyrimidin-5-amine], the inhibition constant (Ki) in assay [1] is 29 nM; in assay [2], 536 nM; in assay [3] it was 63 nM; in assay [4], 35.7 nM.

As for `Cc1cc(-c2c(-c3cccc(C#N)c3)nn3ccc(C(=N)NC(C)(C)C)nc23)cc(Cl)n1` [Example 90, N-tert-Butyl-3-(2-chloro-6-methyl-4-pyridyl)-2-(3-cyanophenyl)pyrazolo [1,5-a]pyrimidine-5-carboxamidine], the Ki in assay [1] is 1840 nM; in assay [2] it was over 1000 nM; in assay [3], 80 nM; in assay [4], 12.3 nM.

Consider `Cc1cc(-c2c(-c3cccc(C#N)c3)nn3ccc(C(=O)NCC4CNC(=O)CO4)nc23)cc(C)n1` (stereo not drawn) [Example 92.5], for which the Ki is 438 nM in assay [1], over 1000 nM in assay [2], 17 nM in assay [3] and 9.2 nM in assay [4].

These data come from patent US20230203041A1, “ANTAGONISTS OF THE ADENOSINE A2A RECEPTOR” (AdoRx Therapeutics Limited, priority 2020, published 2023).
